“And” between values parts separate entries of the source, which are not always exact repeats. Identical values can stand only once.
How the values were obtained:
[1] = Example 5A: plasma concentrations, population PK; format: in vivo, human
Protocol: (§1) At Visit 3, blood was drawn twice, at 0.5 to 1.5 hours postdose and at 2 to 5 hours postdose, from each evaluable subject. At Visits 4, 5 and 6, blood was drawn once immediately prior to the dose for each day, and again at 0.5 to 1.5 hours postdose and at 2 to 5 hours postdose, from each evaluable subject. Blood was drawn only once for patients who took the study drug for the day before visiting the investigational site. At Visit 7, blood was drawn only once at the visit.

[2] = test system: LH, FSH, estradiol (E2), progesterone (P); assay: Example 5A: serum LH, FSH, E2, P; format: in vivo, human
Protocol: as §1

[3] = test system: endometriosis; assay: Example 7 12-week study in endometriosis: efficacy (VAS, B&B, EHP-30); format: in vivo, human; conditions: for Physician B&B, dysmenorrhea / Physician B&B, dyspareunia / Physician B&B, non-menstrual pelvic pain / change from baseline in EHP-30, Control and powerlessness / change from baseline in EHP-30, Self-image / change from baseline in EHP-30, emotional well-being / change from baseline in EHP-30, pain / change from baseline in EHP-30, social support: Week 12; for Modified (patient) B&B, deep dyspareunia / Modified (patient) B&B, dysmenorrhea / Modified (patient) B&B, non-menstrual pelvic pain / change from baseline in proportion of days with usage of analgesics: end of treatment
Protocol: Secondary endpoints included VAS score for pelvic pain, dysmenorrhea, and dyspareunia during the treatment period. […] Subjects recorded in the patient diary every day until the end of treatment. […] Designated examinations and evaluations were performed at each visit. As used in the examples, the VAS score was evaluated using a 100 mm scale. For pain intensity, the scale was anchored by “no pain” (score of 0) and “pain as bad as you can imagine” (score of 100). […] The above items were evaluated using a patient diary that was distributed by the sponsor. Subjects filled out the patient diary every day during the treatment period or until early termination. If taking prohibited analgesics, subjects recorded this fact in the patient diary along with the accompanying pain symptoms before use of analgesics. As used in the examples, pain during menstruation and pelvic pain unrelated to menstruation were evaluated using scores on the M-B&B and B&B. The M-B&B scores were recorded by subjects on the patient diary supplied by the sponsor. Subjects filled out the patient diary every day during the treatment period or until early termination. If taking prohibited analgesics, subjects recorded this fact in the patient diary along with the accompanying pain symptoms before use of analgesics. The investigator or subinvestigator assessed each patient's pain through interviews and filled out a B&B once a month. The items that were assessed are shown below. The M-B&B score included: dysmenorrhea (severe, moderate, mild, no pain, or no menstruation); pelvic pain (severe, moderate, mild, or no pain); deep dyspareunia (severe, moderate, mild, no pain, or no intercourse). The B&B score included: dysmenorrhea (severe, moderate, mild, none, or not applicable); dyspareunia (severe, moderate, mild, none, or not applicable); pelvic pain (severe, moderate, mild, or none); pelvic tenderness (severe, moderate, mild, or none); and induration (severe, moderate, mild, or none). As used in the examples, the EHP-30 score was obtained by subjects assessing and recording their own QOL using the EHP-30 questionnaire.

[4] = FIG. 7E
Excerpt: Table printed on a drawing sheet, FIG. 7E
The patent's description of the figure: FIGS. 7A-F are tables of plasma PK parameters for Cohorts 8 to 10 in accordance with Example 4.
First reader's note: Each column is a dose group; according to the description these are plasma PK parameters on Day 14 (Cohorts 8 to 10).

[5] = FIG. 10
Protocol: Table printed on a drawing sheet, FIG. 10
The patent's description of the figure: FIG. 10 is a table of urine PK parameters for Cohort 7 in accordance with Example 4.
First reader's note: Urine PK parameters for Cohort 7 (fed vs fasted, 40 mg); each column is a dosing arm and the rows give summary statistics per parameter.

Structure (SMILES): CONC(=O)Nc1ccc(-c2sc3c(c2CN(C)C)c(=O)n(-c2ccc(OC)nn2)c(=O)n3Cc2c(F)cccc2F)cc1 [Compound 1, N-(4-(1-(2,6-difluorobenzyl)-5-((dimethylamino)methyl)-3-(6-methoxy-3-pyridazinyl)-2,4-dioxo-1,2,3,4-tetrahydrothieno[2,3-d]pyrimidin-6-yl)phenyl)-N′-methoxyurea]
- increase in relative bioavailability, 40 mg vs 10 mg ([1]; human, plasma, oral, population PK, read-out: relative bioavailability higher in 40-mg compared with 10-mg): 30.9%
- absorption rate constant (ka) ([1]; population estimate): 0.416 h⁻¹
- apparent oral clearance (CL/F) ([1]; population estimate): 198 L/h
- median serum E2 ([2]; 10 mg, Week 2): 82.5 pg/mL
- median serum FSH ([2]; 10 mg, Week 2): 5.990 mIU/mL
- median serum LH ([2]; 10 mg, Week 2): 3.815 mIU/mL
- median serum P ([2]; 10 mg, Week 2): 0.315 ng/mL
- median serum E2 ([2]; 10 mg, Week 4): 58.0 pg/mL
- median serum FSH ([2]; 10 mg, Week 4): 5.225 mIU/mL
- median serum LH ([2]; 10 mg, Week 4): 2.565 mIU/mL
- median serum P ([2]; 10 mg, Week 4): 0.440 ng/mL
- median serum E2 ([2]; 10 mg, Week 8): 52.0 pg/mL
- median serum FSH ([2]; 10 mg, Week 8): 6.150 mIU/mL
- median serum LH ([2]; 10 mg, Week 8): 3.460 mIU/mL
- median serum P ([2]; 10 mg, Week 8): 0.360 ng/mL
- median change in serum E2 from baseline ([2]; 10 mg, Week 12): 0.0 pg/mL
- median change in serum FSH from baseline ([2]; 10 mg, Week 12): −1.060 mIU/mL
- median change in serum LH from baseline ([2]; 10 mg, Week 12): 0.420 mIU/mL
- median change in serum P from baseline ([2]; 10 mg, Week 12): 0.080 ng/mL
- median serum E2 ([2]; 10 mg, Week 12): 57.0 pg/mL
- median serum FSH ([2]; 10 mg, Week 12): 6.200 mIU/mL
- median serum LH ([2]; 10 mg, Week 12): 3.550 mIU/mL
- median serum P ([2]; 10 mg, Week 12): 0.410 ng/mL
- median serum E2 ([2]; 20 mg, Week 2): 25.0 pg/mL
- median serum FSH ([2]; 20 mg, Week 2): 5.705 mIU/mL
- median serum LH ([2]; 20 mg, Week 2): 2.520 mIU/mL
- median serum P ([2]; 20 mg, Week 2): 0.235 ng/mL
- median serum E2 ([2]; 20 mg, Week 4): 23.5 pg/mL
- median serum FSH ([2]; 20 mg, Week 4): 4.660 mIU/mL
- median serum LH ([2]; 20 mg, Week 4): 1.750 mIU/mL
- median serum P ([2]; 20 mg, Week 4): 0.270 ng/mL
- median serum E2 ([2]; 20 mg, Week 8): 16.0 pg/mL
- median serum FSH ([2]; 20 mg, Week 8): 4.840 mIU/mL
- median serum LH ([2]; 20 mg, Week 8): 2.260 mIU/mL
- median serum P ([2]; 20 mg, Week 8): 0.250 ng/mL
- median change in serum E2 from baseline ([2]; 20 mg, Week 12): -18.5 pg/mL
- median change in serum FSH from baseline ([2]; 20 mg, Week 12): −0.720 mIU/mL
- median change in serum LH from baseline ([2]; 20 mg, Week 12): −0.895 mIU/mL
- median change in serum P from baseline ([2]; 20 mg, Week 12): -0.090 ng/mL
- median serum E2 ([2]; 20 mg, Week 12): 13.0 pg/mL
- median serum FSH ([2]; 20 mg, Week 12): 5.710 mIU/mL
- median serum LH ([2]; 20 mg, Week 12): 2.685 mIU/mL
- median serum P ([2]; 20 mg, Week 12): 0.250 ng/mL
- median serum FSH ([2]; 40 mg, Week 2): 4.280 mIU/mL
- median serum LH ([2]; 40 mg, Week 2): 0.720 mIU/mL
- median serum P ([2]; 40 mg, Week 2): 0.230 ng/mL
- median serum E2 ([2]; 40 mg, Week 4): 0.0 pg/mL
- median serum FSH ([2]; 40 mg, Week 4): 3.710 mIU/mL
- median serum LH ([2]; 40 mg, Week 4): 0.550 mIU/mL
- median serum P ([2]; 40 mg, Week 4): 0.240 ng/mL
- median serum E2 ([2]; 40 mg, Week 8): 0.0 pg/mL
- median serum FSH ([2]; 40 mg, Week 8): 3.210 mIU/mL
- median serum LH ([2]; 40 mg, Week 8): 0.570 mIU/mL
- median serum P ([2]; 40 mg, Week 8): 0.220 ng/mL
- median change in serum E2 from baseline ([2]; 40 mg, Week 12): -35.0 pg/mL
- median change in serum FSH from baseline ([2]; 40 mg, Week 12): −3.180 mIU/mL
- median change in serum LH from baseline ([2]; 40 mg, Week 12): −2.760 mIU/mL
- median change in serum P from baseline ([2]; 40 mg, Week 12): -0.060 ng/mL
- median serum E2 ([2]; 40 mg, Week 12): 0.0 pg/mL
- median serum FSH ([2]; 40 mg, Week 12): 2.950 mIU/mL
- median serum LH ([2]; 40 mg, Week 12): 0.650 mIU/mL
- median serum P ([2]; 40 mg, Week 12): 0.250 ng/mL
- Physician B&B, dysmenorrhea ([3]; 10 mg): −1.0
- Physician B&B, dyspareunia ([3]; 10 mg): −0.2
- Physician B&B, non-menstrual pelvic pain ([3]; 10 mg): −0.6
- change from baseline in EHP-30, Control and powerlessness ([3]; 10 mg): −13.7
- change from baseline in EHP-30, Self-image ([3]; 10 mg): −5.5
- change from baseline in EHP-30, emotional well-being ([3]; 10 mg): −8.3
- change from baseline in EHP-30, pain ([3]; 10 mg): −18.3
- change from baseline in EHP-30, social support ([3]; 10 mg): −6.6
- change from baseline in mean VAS score, pelvic pain ([3]; 10 mg, end of 12-wk treatment period): −6.168±9.1411 mm
- Modified (patient) B&B, deep dyspareunia ([3]; 10 mg): −0.08
- Modified (patient) B&B, dysmenorrhea ([3]; 10 mg): −0.48
- Modified (patient) B&B, non-menstrual pelvic pain ([3]; 10 mg): −0.21
- change from baseline in proportion of days with usage of analgesics ([3]; 10 mg): −6.6
- Physician B&B, dysmenorrhea ([3]; 20 mg): −1.5
- Physician B&B, dyspareunia ([3]; 20 mg): −0.2
- Physician B&B, non-menstrual pelvic pain ([3]; 20 mg): −0.8
- change from baseline in EHP-30, Control and powerlessness ([3]; 20 mg): −14.6
- change from baseline in EHP-30, Self-image ([3]; 20 mg): −6.3
- change from baseline in EHP-30, emotional well-being ([3]; 20 mg): −8.9
- change from baseline in EHP-30, pain ([3]; 20 mg): −17.8
- change from baseline in EHP-30, social support ([3]; 20 mg): −8.4
- change from baseline in mean VAS score, pelvic pain ([3]; 20 mg, end of 12-wk treatment period): −8.070±13.3707 mm
- Modified (patient) B&B, deep dyspareunia ([3]; 20 mg): −0.10
- Modified (patient) B&B, dysmenorrhea ([3]; 20 mg): −0.76
- Modified (patient) B&B, non-menstrual pelvic pain ([3]; 20 mg): −0.22
- change from baseline in proportion of days with usage of analgesics ([3]; 20 mg): −6.3
- change from baseline in mean VAS score, pelvic pain ([3]; 40 mg, Day 1-28): −3.761 mm
- change from baseline in mean VAS score, pelvic pain ([3]; 40 mg, Day 29-56): −8.960±9.8226 mm
- change from baseline in mean VAS score, pelvic pain ([3]; 40 mg, Day 57-84): −10.464±11.0995 mm
- Physician B&B, dysmenorrhea ([3]; 40 mg): −2.0
- Physician B&B, dyspareunia ([3]; 40 mg): −0.1
- Physician B&B, non-menstrual pelvic pain ([3]; 40 mg): −0.9
- change from baseline in EHP-30, Control and powerlessness ([3]; 40 mg): −17.2
- change from baseline in EHP-30, Self-image ([3]; 40 mg): −8.4
- change from baseline in EHP-30, emotional well-being ([3]; 40 mg): −10.4
- change from baseline in EHP-30, pain ([3]; 40 mg): −25.3
- change from baseline in EHP-30, social support ([3]; 40 mg): −6.8
- change from baseline in mean VAS score, pelvic pain ([3]; 40 mg, end of 12-wk treatment period): −10.418±11.0171 mm
- Modified (patient) B&B, deep dyspareunia ([3]; 40 mg): −0.07
- Modified (patient) B&B, dysmenorrhea ([3]; 40 mg): −1.16
- Modified (patient) B&B, non-menstrual pelvic pain ([3]; 40 mg): −0.33
- change from baseline in proportion of days with usage of analgesics ([3]; 40 mg): −10.1
- CL/F (L/hr) | Mean [4]: 569.7 L/h and 436.3 L/h and 373.4 L/h
- Vz/F (L) | Mean [4]: 5041.8 L and 3618.3 L and 3086.5 L
- CLr (L/hr) | Mean [5]: 6.1047 L/h and 6.7583 L/h
- Fe (%) | Mean [5]: 0.919% and 1.963%

From patent US11957684B2, “Treatment of heavy menstrual bleeding associated with uterine fibroids” (Sumitomo Pharma Switzerland GmbH, priority 2016, dated 2024)
